Experimental data: PubChem BioAssay AID1845207 (Molecular Pharmacology Branch, DTP, NCI, 2023)
“And” between values parts separate entries of the source, which are not always exact repeats. Equal entries are not always repeated. The source made the active and inactive calls. Rule for the calls: active = viability on the fitted dose curve at most 10% of control; inactive = the rest.

Tested on: NCI-H1876 tumor spheroid viability
Assay: Anticancer human tumor NCI-H1876 cell line growth inhibition;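 note: spheroids exposed to compounds for seven days before the viability read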;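 for viability, T/C: percent of DMSO vehicle control viability so 100% = vehicle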
Conditions: spheroids with HUVEC and MSC; for viability, T/C: stronger effect = lower value
Excerpt: Multicellular complex tumor spheroid response to DNA repair inhibitors in combination with DNA-damaging drugs
This study explores the anticancer activities of DNA-damaging drugs and inhibitors of DNA damage repair, both as single agents and in combinations. Complex tumor spheroids comprised of malignant cells, endothelial cells and mesenchymal stem cells served as an in vitro model for human solid tumors. This model system incorporates physiologically relevant features and patient-derived or established malignant cell lines with clinically relevant genetic alterations from many tumor types. Twenty-six patient-derived or established malignant cell lines were evaluated representing sarcoma, melanoma, small cell lung cancer (SCLC), non-small cell lung cancer (NSCLC), as well as bladder, ovarian and pancreatic cancers. The concentration ranges selected for each drug and investigational agent were based upon clinically achievable concentrations if the clinical Cmax of the agent was known.
Compounds. The drugs and compounds olaparib (NSC753686), talazoparib (NSC767125), berzosertib (NSC777718), elimusertib (NSC800525), nedisertib (NSC802822), VX-984 (NSC792969), AZD-1390 (NSC803789), temozolomide (NSC362856), topotecan (NSC609699), trabectedin (NSC813783), staurosporine (NSC755774), and gemcitabine (NSC613327) were obtained from the National Cancer Institute (NCI) Developmental Therapeutics Program Chemical Repository. The FDA-approved anticancer drug set is available from the Developmental Therapeutics Program at https://dtp.cancer.gov/organization/dscb/obtaining/available_plates.htm. […] The stock solutions were prepared in dimethyl sulfoxide (DMSO, Sigma-Aldrich, St. Louis, MO, cat. D2650) at 400-fold the tested concentration and stored at -70 degrees C. Prior to their use, the stock solutions were diluted in fresh medium and the final DMSO concentration in the assay was 0.25% (v/v). All drugs and investigational agents were tested over a range starting from a high concentration at or near the clinical Cmax and decreasing in half-log increments. If the clinical Cmax for an agent had not been determined, the highest concentration tested was 10 microM.
Cell Lines. The patient-derived cancer cell (PDC) lines: 156681-154-R-J1-PDC, 283228-195-R-J1-PDC, 287954-098-R-J1-PDC, 292921-168-R-J2-PDC, 349418-098-R-PDC, 425362-245-T-J1-PDC, 556581-035-R-J1-PDC, and BL0293-F563-PDC were received from the NCI Patient-Derived Models Repository (PDMR, https://pdmr.cancer.gov). The established cell lines HS-SY-2 (RRID:CVCL_8719), MPNST, and SYO-1 (RRID:CVCL_7146) were obtained from the Sloan Kettering Institute. The alveolar soft parts sarcoma cell line ASPS-1 (RRID:CVCL_S738) was established at the NCI and grown from internal seed stocks. The following established cell lines were purchased from the American Type Culture Collection (ATCC, Manassas, VA): G-401 (ATCC, cat. CRL-1441, RRID:CVCL_0270), SW982 (ATCC, cat. HTB-93, RRID:CVCL_1734), VA-ES-BJ (ATCC, cat. CRL-2138, RRID:CVCL_1785), NCI-H719 (ATCC, cat. CRL-5837, RRID:CVCL_1582), NCI-H196 (ATCC, cat. CRL-5823, RRID:CVCL_1509), NCI-H841 (ATCC, cat. CRL-5845, RRID:CVCL_1595), NCI-H1618 (ATCC, cat. CRL-5879, RRID:CVCL_1480), NCI-H1876 (ATCC, cat. CRL-5902, RRID:CVCL_1503), DMS 114 (ATCC, cat. CRL-2066; RRID:CVCL_1174), NCI-H211 (ATCC, cat. CRL-5824; RRID:CVCL_1529), and SW 1271 (ATCC, cat. CRL-2177, RRID:CVCL_1716). The small cell lung cancer cell line COR-L88 was purchased from Sigma-Aldrich (cat. 92031917-1VL, RRID:CVCL_1141). The non-small cell lung cancer cell lines NCI-H226 (RRID:CVCL_1544) and NCI-H322M (RRID:CVCL_1557) were established at the NCI and grown from internal seed stocks. Pooled donor human umbilical vein endothelial cells (HUVEC, Lonza, cat. CC-2519) and human mesenchymal stem cells (hMSC, Lonza, cat. PT-2501) were purchased from Lonza (Walkersville, MD).
Cell Culture. All cells were maintained in an incubator at 37 degrees C and 5% CO2 with 95% humidity. […]

[1] = compound alone, run of 11/07/2019
[2] = compound alone, run of 12/16/2019

Compound: CC(C)n1c(=O)n(C)c2cnc3cc(F)c(-c4ccc(OCCCN5CCCCC5)nc4)cc3c21
- viability, T/C (compound 0.0316 µM): 100% and 85.6% and 104%
- viability, T/C (compound 0.1 µM): 98.1% and 49.6% and 104%
- viability, T/C (compound 0.316 µM): 103% and 53.3% and 100%
- viability, T/C (compound 1 µM): 103% and 47.4% and 104%
- viability, T/C (compound 3.16 µM): 107% and 28.5% and 105%
- viability, T/C (compound 10 µM): 102% and 11.4% and 93.3%

Compound: CC1COCCN1c1cc(-c2ccnn2C)c2ccnc(-c3ccn[nH]3)c2n1 (configuration not stated)
- viability, T/C (compound 0.0316 µM): 54% and 61.9% and 73.3%
- viability, T/C (compound 0.1 µM): 32.2% and 41.5% and 41.2%
- viability, T/C (compound 0.316 µM): 18.1% and 48.3% and 20.1%
- viability, T/C (compound 1 µM): 6.97% and 20% and 7.21%
- viability, T/C (compound 3.16 µM): 3.09% and 11.9% and 3.22%
- viability, T/C (compound 10 µM): 2.37% and 7.33% and 2.52%
- IC50 (curve of compound): 39.1 nM and 121 nM and 73.6 nM

Compound: CC[C@@]1(O)C(=O)OCc2c1cc1n(c2=O)Cc2cc3c(CN(C)C)c(O)ccc3nc2-1
- viability, T/C (compound 0.003 µM): 84.5% [middle of 10 runs]
- viability, T/C (compound 0.03 µM): 12.1% [middle of 10 runs]
- viability, T/C (compound 0.0949 µM): 8% [middle of 10 runs]
- viability, T/C (compound 0.3 µM): 3.52% [middle of 10 runs]
- IC50 [1]: 7.08 nM [middle of 5 runs]
- IC50 [2]: 5.61 nM [middle of 5 runs]

Compound: CNCc1ccc(-c2cc(-c3nc(-c4ccc(S(=O)(=O)C(C)C)cc4)cnc3N)on2)cc1
- viability, T/C (compound 0.00949 µM): 97.7% and 86.9% and 104%
- viability, T/C (compound 0.03 µM): 76.6% and 72.2% and 99.9%
- viability, T/C (compound 0.0949 µM): 59.2% and 49.9% and 105%
- viability, T/C (compound 0.3 µM): 31.1% and 27.1% and 92.3%
- viability, T/C (compound 0.949 µM): 16.1% and 10.4% and 48.3%
- viability, T/C (compound 3 µM): 10.2% and 0.26% and 20.5%
- IC50 (curve of compound): 126 nM and 95.3 nM and 906 nM

Compound: COc1cc(C)[nH]c(=O)c1CN1CCc2c(Cl)cc(C(OC)C3COC3)c(Cl)c2C1=O (configuration not stated)
- viability, T/C (compound 0.0316 µM): 106% and 117% and 105%
- viability, T/C (compound 0.1 µM): 109% and 112% and 103%
- viability, T/C (compound 0.316 µM): 101% and 110% and 98.1%
- viability, T/C (compound 1 µM): 102% and 103% and 92.3%
- viability, T/C (compound 3.16 µM): 98.3% and 96.9% and 95.2%
- viability, T/C (compound 10 µM): 94.2% and 77.4% and 86.5%
- IC50 (curve of compound): > 10000 nM

Compound: COc1cc2c(cc1O)CCNC21CSC2c3c(OC(C)=O)c(C)c4c(c3C(COC1=O)N1C(O)C3Cc5cc(C)c(OC)c(O)c5C(C21)N3C)OCO4 (configuration not stated)
- viability, T/C (compound 30 pM): 102% [middle of 10 runs]
- viability, T/C (compound 94.9 pM): 90.2% [middle of 10 runs]
- viability, T/C (compound 0.000949 µM): 2.68% [middle of 10 runs]
- viability, T/C (compound 0.003 µM): 0.78% [middle of 10 runs]
- IC50 [2]: 0.197 nM [middle of 10 runs]

Compound: COc1ccc([C@@H](O)c2cc(-c3ncnc4cc(N5CCOCC5)ccc34)c(F)cc2Cl)nn1
- viability, T/C (compound 0.0316 µM): 105% and 98% and 103%
- viability, T/C (compound 0.1 µM): 104% (2×) and 95.2%
- viability, T/C (compound 0.316 µM): 102% and 74.6% and 96.1%
- viability, T/C (compound 1 µM): 97.6% and 98%
- outcome (compound 1 µM): inactive
- viability, T/C (compound 3.16 µM): 81.2% and 26.2% and 77.6%
- IC50 (curve of compound): 5500 nM and 1120 nM and 6510 nM

Compound: Cc1cc(C)c(CNC(=O)c2cc(-c3ccc(CN4CCOCC4)cc3)cc3c2cnn3C2CCCC2)c(=O)[nH]1
- viability, T/C (compound 0.0316 µM): 100% and 97.7% and 96.6%
- viability, T/C (compound 0.1 µM): 102% and 83.9% and 79.4%
- viability, T/C (compound 0.316 µM): 105% and 63% and 63.8%
- viability, T/C (compound 1 µM): 105% and 49.2% and 51.9%
- viability, T/C (compound 3.16 µM): 107% and 28.4% and 30.3%
- viability, T/C (compound 10 µM): 99.2% and 12% and 11.3%

Compound: Cc1sc2c(c1C)C(c1ccc(Cl)cc1)=NC(CC(=O)Nc1ccc(O)cc1)c1nnc(C)n1-2 (configuration not stated)
- viability, T/C (compound 0.00949 µM): 94.3% and 86.8% and 105%
- viability, T/C (compound 0.03 µM): 71.5% and 70.6% and 109%
- viability, T/C (compound 0.0949 µM): 51.4% and 53% and 109%
- viability, T/C (compound 0.3 µM): 33.7% and 35.1% and 81.6%
- viability, T/C (compound 0.949 µM): 17% and 16% and 39.7%
- viability, T/C (compound 3 µM): 12.9% and 9.5% and 12.3%
- IC50 (curve of compound): 98.8 nM and 112 nM and 709 nM

Compound: Cn1ncnc1[C@H]1c2n[nH]c(=O)c3cc(F)cc(c23)N[C@@H]1c1ccc(F)cc1
- viability, T/C (compound 0.00949 µM): 88.9% and 68.4% and 87.4%
- viability, T/C (compound 0.03 µM): 73.5% and 65.7% and 71.3%
- viability, T/C (compound 0.0949 µM): 52.3% and 49.7% and 39.4%
- viability, T/C (compound 0.3 µM): 28.3% and 25.2% and 21.1%
- viability, T/C (compound 3 µM): 0.28% and 7.28% and 3.57%
- IC50 (curve of compound): 104 nM and 84.6 nM and 67.4 nM

Compound: Cn1nnc2c(C(N)=O)ncn2c1=O
- viability, T/C (compound 1 µM): 95% [middle of 10 runs]
- viability, T/C (compound 3.16 µM): 103% [middle of 10 runs]
- viability, T/C (compound 10 µM): 99.7% [middle of 10 runs]
- IC50 [1]: > 100000 nM and 19100 nM and 92000 nM

Compound: O=C(c1cc(Cc2n[nH]c(=O)c3ccccc23)ccc1F)N1CCN(C(=O)C2CC2)CC1
- viability, T/C (compound 0.0949 µM): 87% and 103% and 107%
- viability, T/C (compound 0.3 µM): 76% and 89.7% and 106%
- viability, T/C (compound 0.949 µM): 84.4% and 76.2% and 100%
- viability, T/C (compound 3 µM): 72.1% and 55.2% and 76.5%
- viability, T/C (compound 9.49 µM): 64% and 33.9% and 18.2%
- viability, T/C (compound 30 µM): 66.7% and 19.1% and 12.6%
- IC50 (curve of compound): > 30000 nM and 3960 nM and 5070 nM

Compound: [2H]c1nc(C)nc([2H])c1-c1cc(NC[C@@H](C)c2cccc3c(C(=O)NC)ccnc23)ncn1
- viability, T/C (compound 0.0316 µM): 102% and 103% and 99.3%
- viability, T/C (compound 0.1 µM): 107% and 55.1% and 102%
- viability, T/C (compound 0.316 µM): 99.8% and 70.6% and 102%
- viability, T/C (compound 1 µM): 102% and 101% and 99.3%
- viability, T/C (compound 3.16 µM): 102% and 90.8% and 97.4%
- viability, T/C (compound 10 µM): 96.6% and 71% and 95%
- IC50 (curve of compound): > 10000 nM
